Source: paper PMC11390726, “Automated design of multi-target ligands by generative deep learning” (Nature Communications, 2024)
Entries after “also recorded” stand apart in the source; their conditions may differ. Values belong to the compound of their own block, whether it stands above or below them.

Experiments:
[1] = molecular target: T1, AT1 (Homo sapiens, UniProt P30556); design: method as in earlier work; settings: fine-tuning set; BindingDB; read-out: potency on target (IC50 for AT1); cited from earlier work
T1 construct: expressed in transfected cells
T1 sequence (P30556 1-359): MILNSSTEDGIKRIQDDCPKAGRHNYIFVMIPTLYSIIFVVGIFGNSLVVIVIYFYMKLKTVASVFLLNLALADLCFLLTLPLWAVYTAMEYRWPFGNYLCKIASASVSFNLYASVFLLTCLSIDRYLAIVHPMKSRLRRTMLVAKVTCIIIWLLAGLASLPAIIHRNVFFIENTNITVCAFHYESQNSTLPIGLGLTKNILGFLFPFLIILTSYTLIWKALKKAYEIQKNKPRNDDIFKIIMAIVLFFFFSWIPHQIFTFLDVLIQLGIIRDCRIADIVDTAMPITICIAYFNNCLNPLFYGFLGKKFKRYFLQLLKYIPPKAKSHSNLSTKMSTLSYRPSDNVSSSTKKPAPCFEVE

[2] = test system: PPARδ; design: method as in earlier work; settings: fine-tuning set; BindingDB; read-out: potency on target (EC50 for PPARδ); cited from earlier work
[3] = test system: THRβ; design: method as in earlier work; settings: fine-tuning set; BindingDB; read-out: potency on target (EC50 for THRβ); cited from earlier work
[4] = molecular target: T2, PPARδ (Homo sapiens, UniProt Q03181); assay: Gal4-hybrid reporter gene assay PPARδ; assay type: cell-based; settings: mean, n ≥ 3
T2 construct: expressed in transfected cells; host or cells: HEK293T
T2 sequence (Q03181 211-439 limits assumed): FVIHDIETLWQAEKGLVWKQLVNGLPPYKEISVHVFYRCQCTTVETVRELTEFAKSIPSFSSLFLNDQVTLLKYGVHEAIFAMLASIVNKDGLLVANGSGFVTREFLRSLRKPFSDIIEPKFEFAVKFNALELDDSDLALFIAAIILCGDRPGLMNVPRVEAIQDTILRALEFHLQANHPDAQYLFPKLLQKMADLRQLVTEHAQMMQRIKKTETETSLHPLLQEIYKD
Excerpt: (§1) Compound 7 was originally designed with tert-butyloxy motif which was replaced by tert-butyl for improved chemical stability. The dual ligand candidates were characterized in functional assays for the targets of interest using cellular Gal4-hybrid reporter gene assays[43] to determine FXR, THRβ and PPARδ modulation and an enzyme activity assay[44] with the fluorogenic substrate PHOME to test sEH inhibition (Table 1). In vitro characterization of the CLM designed dual FXR/sEH modulators 1–3 confirmed engagement of both targets by all three compounds with sub-micromolar to low micromolar potencies. […] All designed PPARδ/sEH modulators (7–9) were confirmed as dual ligands of the intended targets. 7 emerged as remarkably potent sEH inhibitor endowed with micromolar PPARδ agonist activity.
HEK293T cells (ATCC, CRL-1573) were cultured in Dulbecco’s modified eagle medium (DMEM), high glucose, supplemented with 10% FCS, sodium pyruvate (1 mM), penicillin (100 U/mL), and streptomycin (100 µg/mL) to 70–80% confluence at 37 °C and 5% CO2 and seeded in clear 96-well plates with a density of 40,000 cells/well. After 24 h, the medium was changed to Opti-MEM without supplements. Transient transfection was performed using Lipofectamine LTX reagent (Invitrogen, Carlsbad, CA, USA) according to the manufacturer’s protocol with pFR-Luc (100 ng/well) as reporter plasmid, pRL-SV40 (2 ng/well) for normalization of transfection efficiency and cell growth, and one pFA-CMV-hNR-LBD clone coding for the hinge region and ligand binding domain (LBD) of the NR of interest. […] After overnight (14–16 h) incubation, luminescence was measured using the Dual-Glo® Luciferase Assay System (Promega, Madison, WI, USA) according to the manufacturer’s protocol with a Tecan Spark® 10 M multimode microplate reader. Relative light units (RLU) for normalization of transfection efficiency and cell growth were calculated by dividing firefly luminescence by renilla luminescence and multiplication by 1000. […]

[5] = molecular target: T3, sEH (Homo sapiens, UniProt P34913); assay: sEH enzyme activity assay with fluorogenic substrate PHOME; assay type: biochemical; settings: mean, n ≥ 3
T3 construct: His tag (inferred from HisTrap purification with imidazole elution); made in house; own inference
T3 sequence (P34913 1-555): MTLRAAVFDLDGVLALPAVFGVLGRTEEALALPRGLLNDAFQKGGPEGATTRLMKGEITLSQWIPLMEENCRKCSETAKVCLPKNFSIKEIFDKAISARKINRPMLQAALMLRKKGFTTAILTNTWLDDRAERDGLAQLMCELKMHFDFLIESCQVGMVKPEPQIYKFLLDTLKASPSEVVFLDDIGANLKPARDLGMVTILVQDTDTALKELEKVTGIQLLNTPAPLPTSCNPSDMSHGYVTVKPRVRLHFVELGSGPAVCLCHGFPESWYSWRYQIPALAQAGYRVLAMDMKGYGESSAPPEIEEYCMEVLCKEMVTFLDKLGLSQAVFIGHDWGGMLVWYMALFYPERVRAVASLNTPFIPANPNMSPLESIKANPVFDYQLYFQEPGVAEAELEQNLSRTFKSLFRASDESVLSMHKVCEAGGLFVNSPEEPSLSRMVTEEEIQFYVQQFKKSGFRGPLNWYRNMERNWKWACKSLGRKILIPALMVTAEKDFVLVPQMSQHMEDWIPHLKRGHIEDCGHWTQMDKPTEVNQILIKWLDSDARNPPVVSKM
Excerpt: as §1
Soluble epoxide hydrolase (sEH) was purified as described by Hahn et al.[68] and Lukin et al.[69], respectively. Protein expression was carried out in 500 ml ZYP5052 autoinduction medium containing Kanamycin (100 mg/L) with lactose uptake-dependent induction. The fermentation procedure started at 37 °C and 200 rpm until the OD600 reached approximately 1.0. Then the temperature was reduced to 16 °C. After 24–36 h the cells (OD600 ≈ 15.0) were harvested by centrifugation at 5000 × g (4 °C, 20 min). Pellets were resuspended in a resuspension buffer containing Tris (50 mM), NaCl (0.5 M) and MgCl2 (10 mM) at pH 8 and sonicated twice for 15 s on ice. The sonicated suspension was centrifuged (18,000 × g, 30 min, 4 °C) and the supernatant was ultracentrifuged (100,000 × g, 1 h 10 min, 4 °C). The ultracentrifugation supernatant was loaded on a 5 ml HisTrap® FF (GE Healthcare, München, Germany) column at a flow rate of 2 ml/min and washed with washing buffer containing Tris (50 mM), NaCl (0.5 M), MgCl2 (10 mM), imidazole (20 mM) and DTT (3 mM) at pH 8, and eluted at 120 mM imidazole. The fractions containing hsEH after SDS-PAGE fraction analysis were pooled. The identity of hsEH was confirmed by Western Blotting and hsEH hydrolase activity assay. The inhibitory potency of the compounds was determined using a fluorescence-based enzyme activity assay in which PHOME (3-phenyl-cyano(6-methoxy-2-naphthalenyl)methylester-2-oxiraneacetic acid) is metabolized by sEH hydrolase towards a fluorescent naphthalene aldehyde. Dilution series of the compounds were incubated for 30 min with recombinant sEH (final protein concentration 3 nM). Subsequently, the fluorogenic substrate PHOME at final concentration of 50 μM was added, and the fluorescence was measured every minute for 45 min using a Tecan plate reader (ex: 360 nm, em: 465 nm; bandwidth 35 nm). Inhibition in percent was plotted against the logarithmic test compound concentration and IC50-values were calculated using the “log(Inhibitor) vs. Response – Variable slope (four parameters)” equation in GraphPad Prism 7.

[6] = molecular target: T1, AT1; assay: IP-One assay for AT1 in stably transfected CHO-K1 cells; assay type: cell-based; settings: cellular IP-One assay; mean, n ≥ 3
Description: (§2) CHO-K1 cells (DSMZ, ACC110) were cultured at 5% CO2 and 37 °C in full growth medium (Ham’s F-12 medium supplemented with 10% fetal calf serum (FCS), penicillin (100 U/mL) and streptomycin (100 µg/mL)). For harvesting cells were incubated with Trypsin/EDTA. IP-One assay for AT1 and FFAR1. To investigate the ligand dependent activation of the two GPCRs, inositol mono-phosphate (IP-One) accumulation was monitored using an HTRF based displacement assay between FRET acceptor coupled IP-One and Terbium cryptate coupled anti-IP-One antibody (IP-One assay kit, Cisbio Bioassays, Codolet, France). AT1: the IP-One assay for AT1 was performed according to the protocol published by Hernandez-Olmos et al.[66] In brief, by using the sleeping beauty method a CHO-K1 cell line was generated which stably overexpresses AT1 isoform 1 and GNA11 (G-protein subunit α 11) as well as cells only overexpressing the GNA11 without any GPCR, as control. Cells were seeded into white tissue culture 384-well plates (Greiner Bio-One, Frickenhausen, Germany) at 15,000 cells/well and incubated overnight at 37 °C and 5% CO2. […] Antagonist activity of compounds was measured with parallel stimulation with 10 nM [Val5]-Angiotensin II. […] A full dose-response curve with FFAR1 reference agonist GW9508 was measured as control for assay performance. […]

[7] = molecular target: T4, FFAR1 (Homo sapiens, UniProt O14842); assay: IP-One assay for FFAR1 in stably transfected CHO-K1 cells; assay type: cell-based; settings: cellular IP-One assay; mean, n ≥ 3
T4 construct: expressed in transfected cells
Description: as §2

T4 sequence (O14842 whole entry): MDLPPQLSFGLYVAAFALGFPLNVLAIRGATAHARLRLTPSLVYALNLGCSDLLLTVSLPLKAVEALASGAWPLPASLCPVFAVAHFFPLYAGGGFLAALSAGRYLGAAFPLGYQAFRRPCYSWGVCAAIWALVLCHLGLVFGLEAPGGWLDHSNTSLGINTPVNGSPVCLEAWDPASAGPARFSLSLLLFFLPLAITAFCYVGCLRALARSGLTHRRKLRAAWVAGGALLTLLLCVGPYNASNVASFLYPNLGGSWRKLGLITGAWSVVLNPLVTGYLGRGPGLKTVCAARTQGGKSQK

SMILES: CCCCc1cnc(C(=O)O)n1Cc1ccc(-c2ccccc2C)cc1
IC50 [1]: 3 nM

SMILES: CCCCc1ncc(/C=C(\Cc2cccs2)C(=O)O)n1Cc1ccc(C(=O)O)cc1
IC50 [1]: 2 nM

SMILES: CCO[C@H](COc1ccc(C(F)(F)F)cc1)CSc1ccc(OCC(=O)O)c(C)c1
EC50 [2]: 2 nM

SMILES: CC(C)c1cc(Oc2c(Cl)cc(NC(=O)C(=O)O)cc2Cl)n[nH]c1=O
EC50 [3]: 120 nM

SMILES: COc1ccc2c(c1OCc1ccccc1)CC(C(=O)O)N(C(=O)C(c1ccccc1)c1ccccc1)C2 (stereo not shown)
IC50 [1]: 1000 nM

SMILES: CC(C)c1onc(-c2c(Cl)cccc2Cl)c1COc1ccc(CNc2ccc(CC(=O)O)cc2)c(Cl)c1
EC50 [2]: 2000 nM

EC50 [4]: 10 µM | IC50 [5]: 17 nM
SMILES: CC(C)(C)c1ccc(NC(=O)N[C@H]2CC[C@H](Oc3ccc(CCC(=O)O)cc3)CC2)cc1 [Compound 7]

PPARδ: fold act. at 80 µM [4]: 6.7 fold | IC50 [5]: 200 nM
SMILES: O=C(O)CCc1ccc(OC2CCCN(C(=O)NCc3c(Cl)cc(Cl)cc3Cl)CC2)cc1 (stereo not shown) [Compound 8]

PPARδ: fold act. at 80 µM [4]: 3.0 fold | IC50 [5]: 270 nM
SMILES: O=C(O)CCc1ccc(OC2CCN(C(=O)NCc3c(Cl)cc(Cl)cc3Cl)CC2)cc1 [Compound 9]

AT1: activity [6]: inactive | IC50 [5]: 20 nM
SMILES: O=C(O)c1ccc(OC2CCCN(C(=O)NCc3ccc(Cl)cc3Cl)CC2)cc1 (stereo not shown) [Compound 10]

FFAR1: activity [7]: inactive | IC50 [5]: 61 nM
SMILES: CCC(c1ccc(C(=O)O)cc1)c1cccc(NC(=O)Nc2ccc(OC(F)(F)F)cc2)c1 (stereo not shown) [Compound 11]

AT1: activity [6]: no effect; also recorded: inactive | EC50 [7]: 8.5 µM
SMILES: CC#CC(CC(=O)O)c1ccc(OCc2cccc(-c3ccccc3C(=O)O)c2)cc1 (stereo not shown) [Compound 12]
